Source: patent US12441768B2, “Compositions and methods for treating endometriosis” (EndoMet Biosciences, Inc., priority 2018, dated 2025)
*1 amine or outer side, *2 acyl side, *3 side chain or, on linkers, in order; H or OH if unused. Where a SMILES comes first, the peptide text is derived from it. Bridges are numbered along the chain shown (N, C = ends). [ ]: non-standard residue; d: D form. Glutaryl = O=C(CCCC(=O)[*:2])[*:1]; NMeNva = CCC[C@H](NC)C(=O)O

Target: T1, β-catenin (Homo sapiens, UniProt P35222)
T1 sequence (P35222 1-781): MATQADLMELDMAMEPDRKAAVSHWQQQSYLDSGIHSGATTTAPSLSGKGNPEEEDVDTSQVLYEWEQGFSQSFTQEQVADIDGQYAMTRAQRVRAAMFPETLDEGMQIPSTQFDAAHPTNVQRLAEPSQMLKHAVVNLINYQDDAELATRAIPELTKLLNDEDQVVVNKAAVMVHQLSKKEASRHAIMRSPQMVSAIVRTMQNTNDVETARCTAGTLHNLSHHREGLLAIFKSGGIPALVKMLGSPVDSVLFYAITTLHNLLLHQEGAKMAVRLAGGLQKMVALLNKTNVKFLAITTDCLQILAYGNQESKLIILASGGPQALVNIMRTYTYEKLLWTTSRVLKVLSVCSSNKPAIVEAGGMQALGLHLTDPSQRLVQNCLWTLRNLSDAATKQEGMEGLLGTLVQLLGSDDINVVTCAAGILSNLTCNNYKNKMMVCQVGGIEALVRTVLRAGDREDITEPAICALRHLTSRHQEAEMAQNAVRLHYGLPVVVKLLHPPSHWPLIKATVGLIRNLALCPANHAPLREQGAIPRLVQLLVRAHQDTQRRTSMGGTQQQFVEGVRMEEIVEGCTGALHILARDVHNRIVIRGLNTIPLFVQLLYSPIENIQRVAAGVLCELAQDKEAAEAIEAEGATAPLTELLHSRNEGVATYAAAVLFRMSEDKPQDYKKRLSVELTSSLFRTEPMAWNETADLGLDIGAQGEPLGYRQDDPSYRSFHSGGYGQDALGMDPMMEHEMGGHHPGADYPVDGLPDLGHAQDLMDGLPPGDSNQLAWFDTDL
Assay: KD50 measurement using competitive fluorescence polarization (FP) with labelled TCF4
Format: binding
Settings: fluorescence polarization, β-catenin; for Kd: read-out: β-Cat FP KD
Method in brief: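 Labelled TCF4 (5 nM) mixed with 100 nM β-catenin at room temperature; inhibitor added as serial dilutions from 10 nM to 30 uM. Polarization read at excitation 470 nm/emission 520 nm; binding displacement lowers polarization. Three independent runs.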

SMILES | β-Cat FP Hill slope | Kd [µM]
CC[C@H](NC(=O)[C@@H](NC(=O)[C@H](CC(C)C)NC(=O)[C@H](CC1CCCCC1)NC(=O)[C@H](Cc1c[nH]c2ccccc12)NC(=O)[C@H](CCCCN)NC(=O)COCCOCCNC(=O)[C@H](CCCNC(=N)N)NC(=O)[C@H](CCCNC(=N)N)NC(=O)[C@H](CCCNC(=N)N)NC(=O)[C@H](CCC(N)=O)NC(=O)[C@H](CCCNC(=N)N)NC(=O)[C@H](CCCNC(=N)N)NC(=O)[C@H](CCCCN)NC(=O)[C@H](CCCCN)NC(=O)[C@@H](N)CCCNC(=N)N)[C@@H](C)CC)C(=O)N[C@@H](C)C(=O)N[C@@H](Cc1c[nH]c2ccccc12)C(=O)N[C@@H](CC(=O)O)C(=O)O [282/493] (HELM PEPTIDE1{R.K.K.R.R.Q.R.R.R.[O=C(COCCOCCN[*:1])[*:2]].K.W.[Cha].L.I.[Abu].A.W.D}$$$$V2.0) | 0.77 | 
CCCCCCCCCCCCCCCCCC(=O)N[C@@H](Cc1c[nH]c2ccccc12)C(=O)N(C)[C@@H](Cc1c[nH]c2ccccc12)C(=O)N[C@@H](CCC(=O)O)C(=O)NC(C)(CO)C(=O)N[C@H](C(=O)N[C@@H](CC(C)C)C(=O)N[C@@H](CC(=O)O)C(=O)N[C@@H](CCC(=O)O)C(=O)N[C@@H](Cc1c[nH]cn1)C(=O)NC(C)(C(=O)N[C@@H](CCC(N)=O)C(=O)N[C@@H](CCCNC(=N)N)C(=O)N[C@H](C(=O)N[C@@H](Cc1c[nH]c2ccccc12)C(=O)O)C(C)C)C(C)C)[C@@H](C)CC (single isomer, unassigned) [SEQ ID NO: 393/500, Stearyl-W-NmeW-E-aMeS-ILDEH-aMeV-QRVW-COOH] |  | > 30
CC[C@H](C)[C@@H]1NC(=O)[C@@H](NC(=O)C(C)(C)NC(=O)[C@H](C)N(C)C(=O)[C@H](Cc2c[nH]c3ccccc23)NC(C)=O)CCCCNC(=O)CC[C@@H](C(=O)N[C@@H](Cc2c[nH]cn2)C(=O)N[C@H](C(=O)N[C@@H](CCC(N)=O)C(=O)N[C@@H](CCCNC(=N)N)C(=O)N[C@H](C(=O)N[C@@H](Cc2c[nH]c3ccccc23)C(=O)NCC(N)=O)C(C)C)C2CCCCC2)NC(=O)[C@H](CC(=O)O)NC(=O)[C@H](CC(C)C)NC1=O [compound 418] (HELM PEPTIDE1{[ac].W.[meA].[Aib].K.I.L.D.E.H.[O=C([C@@H](N[*:1])C1CCCCC1)[*:2]].Q.R.V.W.G.[am]}$PEPTIDE1,PEPTIDE1,5:R3-9:R3$$$V2.0) | 1.03 | > 30
CC(=O)N[C@@H](Cc1c[nH]c2ccccc12)C(=O)N(C)[C@@H](C)C(=O)N[C@@H](CCC(N)=O)C(=O)N[C@H]1CCCCNC(=O)CC[C@@H](C(=O)N[C@@H](Cc2c[nH]cn2)C(=O)N[C@H](C(=O)N[C@@H](CCC(N)=O)C(=O)N[C@@H](CCCNC(=N)N)C(=O)N[C@H](C(=O)N[C@@H](Cc2c[nH]c3ccccc23)C(=O)NCC(N)=O)C(C)C)C(C)C)NC(=O)[C@H](CC(=O)O)NC(=O)[C@H](CC(C)C)NC(=O)[C@H](C2CCCCC2)NC1=O [compound 421] (HELM PEPTIDE1{[ac].W.[meA].Q.K.[O=C([C@@H](N[*:1])C1CCCCC1)[*:2]].L.D.E.H.V.Q.R.V.W.G.[am]}$PEPTIDE1,PEPTIDE1,5:R3-9:R3$$$V2.0) | 0.7 | < 0.4
CCC[C@H]1C(=O)N[C@@H](CCC(N)=O)C(=O)N[C@@H](CO)C(=O)N[C@@H](CC(C)C)C(=O)N[C@@H](Cc2ccccc2)C(=O)N(C)[C@@H](CCC)C(=O)N2CCC[C@H]2C(=O)N2CCC[C@H]2C(=O)N(C)[C@@H](CCC)C(=O)N[C@H](C(N)=O)CCCCNC(=O)CCCC(=O)N[C@@H](CCSC)C(=O)N[C@@H](CCSC)C(=O)N1C [compound 3] (MM[NMeNva]QSLF[NMeNva]PP[NMeNva]K-NH2; linker N-12 via Glutaryl) | 0.98 | 10 to 30
CC[C@H](C)[C@@H]1NC(=O)[C@H](CC(C)C)NC(=O)[C@H](Cc2ccccc2)NC(=O)[C@H](Cc2c[nH]c3ccccc23)NC(=O)[C@@H](N)CCCCNC(=O)CCCCNC(=O)C[C@@H](C(=O)O)NC(=O)[C@H](Cc2c[nH]c3ccccc23)NC(=O)[C@H](C)NC(=O)[C@H](CS)NC1=O [compound 248] (HELM PEPTIDE1{K.W.F.L.I.C.A.W.[O=C(O)[C@H](CC(=O)[*:2])N[*:1]].[O=C(CCCCN[*:1])[*:2]]}$PEPTIDE1,PEPTIDE1,1:R3-10:R2$$$V2.0) |  | > 30
CC[C@H](C)[C@@H]1NC(=O)[C@@H](NC(=O)[C@H](CCC(N)=O)NC(=O)[C@H](C)N(C)C(C)=O)CCCCNC(=O)CC[C@@H](C(=O)N[C@@H](Cc2c[nH]cn2)C(=O)N[C@H](C(=O)N[C@@H](CCC(N)=O)C(=O)N[C@@H](CCCNC(=N)N)C(=O)N[C@H](C(=O)N[C@@H](Cc2c[nH]c3ccccc23)C(=O)NCC(N)=O)C(C)C)C2CCCCC2)NC(=O)[C@H](CC(N)=O)NC(=O)[C@H](CC(C)C)NC1=O [compound 433] (HELM PEPTIDE1{[ac].[meA].Q.K.I.L.N.E.H.[O=C([C@@H](N[*:1])C1CCCCC1)[*:2]].Q.R.V.W.G.[am]}$PEPTIDE1,PEPTIDE1,4:R3-8:R3$$$V2.0) | 0.7 | 0.4 to 1
CC[C@H](C)[C@@H]1NC(=O)[C@@H](NC(=O)[C@H](CCC(N)=O)NC(=O)[C@H](C)N(C)C(=O)[C@@H](N)Cc2c[nH]c3ccccc23)CCCCNC(=O)CC[C@@H](C(=O)N[C@@H](Cc2c[nH]cn2)C(=O)N[C@H](C(=O)N[C@@H](CCC(N)=O)C(=O)N[C@@H](CCCNC(=N)N)C(=O)N[C@H](C(=O)N[C@@H](Cc2c[nH]c3ccccc23)C(=O)NCC(N)=O)C(C)C)C(C)C)NC(=O)[C@H](CC(=O)O)NC(=O)[C@H](CC2CCCCC2)NC1=O [compound 406] (HELM PEPTIDE1{W.[meA].Q.K.I.[Cha].D.E.H.V.Q.R.V.W.G.[am]}$PEPTIDE1,PEPTIDE1,4:R3-8:R3$$$V2.0) |  | > 30
CC[C@H](C)[C@@H]1NC(=O)[C@@H](NC(=O)[C@H](CCC(N)=O)NC(=O)[C@H](C)N(C)C(=O)[C@H](Cc2c[nH]c3ccccc23)NC(C)=O)CCCCNC(=O)CC[C@@H](C(=O)N[C@@H](Cc2c[nH]cn2)C(=O)N[C@H](C(=O)N[C@@H](CCC(N)=O)C(=O)N[C@@H](CCCNC(=N)N)C(=O)N[C@H](C(=O)N[C@@H](Cc2c[nH]c3ccccc23)C(=O)NCC(N)=O)C(C)C)C(C)C)NC(=O)[C@H](CC(=O)O)NC(=O)[C@H](CC2CCCCC2)NC1=O [compound 407] (HELM PEPTIDE1{[ac].W.[meA].Q.K.I.[Cha].D.E.H.V.Q.R.V.W.G.[am]}$PEPTIDE1,PEPTIDE1,5:R3-9:R3$$$V2.0) |  | > 30
CC[C@@H]1NC(=O)[C@H]([C@@H](C)CC)NC(=O)[C@H](CC(C)C)NC(=O)[C@H](Cc2ccccc2)NC(=O)[C@H](Cc2c[nH]c3ccccc23)NC(=O)CCCCCNC(=O)C[C@@H](C(=O)O)NC(=O)[C@H](Cc2c[nH]c3ccccc23)NC(=O)[C@H](C)NC1=O [compound 246] (HELM PEPTIDE1{[O=C(CCCCCN[*:1])[*:2]].W.F.L.I.[Abu].A.W.D}$PEPTIDE1,PEPTIDE1,1:R1-9:R3$$$V2.0) | 3 | < 0.4
CC[C@H](C)[C@@H]1NC(=O)[C@H](CC(C)C)NC(=O)[C@H](Cc2ccccc2)NC(=O)[C@H](Cc2c[nH]c3ccccc23)NC(=O)[C@@H](N)CC(=O)NCCCC[C@@H](C(=O)O)NC(=O)[C@H](Cc2c[nH]c3ccccc23)NC(=O)[C@H](C)NC(=O)[C@H](CS)NC1=O [compound 233] (HELM PEPTIDE1{D.W.F.L.I.C.A.W.K}$PEPTIDE1,PEPTIDE1,1:R3-9:R3$$$V2.0) | 0.74 | < 0.4
CCCCCCCCCCCC(=O)N[C@@H](Cc1c[nH]c2ccccc12)C(=O)N1CCC[C@H]1C(=O)N[C@@H](CCC(N)=O)C(=O)N[C@@H](CO)C(=O)N[C@H](C(=O)N[C@@H](CC(C)C)C(=O)N[C@@H](CC(=O)O)C(=O)N[C@H]1CCC(=O)NCCCC[C@@H](C(=O)N[C@H](C(=O)N[C@@H](Cc2c[nH]c3ccccc23)C(N)=O)C(C)C)NC(=O)[C@H](CCC(N)=O)NC(=O)[C@H](C2CCCCC2)NC(=O)[C@H](Cc2c[nH]cn2)NC1=O)[C@@H](C)CC [compound 469] (HELM PEPTIDE1{[CCCCCCCCCCCC(=O)[*:2]].W.P.Q.S.I.L.D.E.H.[O=C([C@@H](N[*:1])C1CCCCC1)[*:2]].Q.K.V.W.[am]}$PEPTIDE1,PEPTIDE1,9:R3-13:R3$$$V2.0) |  | < 0.4
CC(C)C[C@@H]1NC(=O)[C@H](Cc2ccccc2)NC(=O)[C@H](Cc2c[nH]c3ccccc23)NC(=O)[C@@H](N)CCCCNC(=O)CC[C@@H](C(=O)N[C@@H](CO)C(=O)N[C@@H](Cc2ccccc2)C(=O)N[C@@H](Cc2c[nH]c3ccccc23)C(=O)NCC(=O)O)NC1=O [compound 231] (HELM PEPTIDE1{K.W.F.L.E.S.F.W.G}$PEPTIDE1,PEPTIDE1,1:R3-5:R3$$$V2.0) | 0.7 | 1 to 10
